{
  "source": "ChEMBL document CHEMBL5390242",
  "about": "“Design, Synthesis, and Antitumor Efficacy of Substituted 2-Amino[1,2,4]triazolopyrimidines and Related Heterocycles as Dual Inhibitors for Microtubule Polymerization and Janus Kinase 2” (J Med Chem, 2023)",
  "key": {"KP-4": {"test_system": "KP-4", "assay": "Antiproliferative activity against human KP-4 cells assessed as cell growth inhibition incubated for 48 hrs by MTT assay", "assay_type": "functional, cell-based", "settings": "KP-4, 48 h"}, "[1]": {"target": "T1, Tyrosine-protein kinase JAK2 (Homo sapiens, UniProt O60674)", "T1 sequence (O60674 whole entry)": "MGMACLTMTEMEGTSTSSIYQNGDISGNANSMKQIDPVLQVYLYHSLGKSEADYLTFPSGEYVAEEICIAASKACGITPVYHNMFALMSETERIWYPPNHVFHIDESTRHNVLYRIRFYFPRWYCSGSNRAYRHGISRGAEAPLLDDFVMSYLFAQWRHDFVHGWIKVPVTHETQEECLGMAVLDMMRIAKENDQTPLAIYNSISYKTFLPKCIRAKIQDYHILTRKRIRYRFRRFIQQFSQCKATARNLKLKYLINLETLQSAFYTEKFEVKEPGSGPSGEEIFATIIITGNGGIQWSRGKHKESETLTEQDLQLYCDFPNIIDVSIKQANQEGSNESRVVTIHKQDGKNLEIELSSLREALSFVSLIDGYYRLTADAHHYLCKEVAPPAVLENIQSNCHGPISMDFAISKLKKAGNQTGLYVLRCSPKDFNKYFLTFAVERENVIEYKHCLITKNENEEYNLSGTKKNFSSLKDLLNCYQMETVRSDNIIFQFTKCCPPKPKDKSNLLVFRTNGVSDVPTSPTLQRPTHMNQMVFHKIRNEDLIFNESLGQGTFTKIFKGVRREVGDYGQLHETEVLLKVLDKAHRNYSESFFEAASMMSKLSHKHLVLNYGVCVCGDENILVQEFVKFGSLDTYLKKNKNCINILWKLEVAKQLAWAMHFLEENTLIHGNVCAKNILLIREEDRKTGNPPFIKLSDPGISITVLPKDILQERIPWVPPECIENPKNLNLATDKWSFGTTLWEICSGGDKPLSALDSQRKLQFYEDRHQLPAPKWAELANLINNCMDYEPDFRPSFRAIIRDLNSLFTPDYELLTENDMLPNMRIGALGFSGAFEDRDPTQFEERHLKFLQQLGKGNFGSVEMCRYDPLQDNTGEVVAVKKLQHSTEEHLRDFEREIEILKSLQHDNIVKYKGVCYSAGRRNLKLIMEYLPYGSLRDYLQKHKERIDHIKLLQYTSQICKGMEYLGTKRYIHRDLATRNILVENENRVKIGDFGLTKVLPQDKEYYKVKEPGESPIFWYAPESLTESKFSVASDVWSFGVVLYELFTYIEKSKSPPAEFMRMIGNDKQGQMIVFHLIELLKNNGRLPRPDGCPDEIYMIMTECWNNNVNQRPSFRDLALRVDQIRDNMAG", "assay": "Inhibition of JAK2 (unknown origin) using Poly-(Glu,Tyr 4:1) peptide as substrate at 1 uM in presence of ATP by ADP-Glo reagent based assay relative to control"}, "[2]": {"target": "T1, Tyrosine-protein kinase JAK2", "assay": "Inhibition of JAK2 (unknown origin) using Poly-(Glu,Tyr 4:1) peptide as substrate in presence of ATP by ADP-Glo reagent based assay"}, "[3]": {"target": "Tyrosine-protein kinase JAK1 (Homo sapiens, UniProt P23458)", "sequence (P23458 whole entry)": "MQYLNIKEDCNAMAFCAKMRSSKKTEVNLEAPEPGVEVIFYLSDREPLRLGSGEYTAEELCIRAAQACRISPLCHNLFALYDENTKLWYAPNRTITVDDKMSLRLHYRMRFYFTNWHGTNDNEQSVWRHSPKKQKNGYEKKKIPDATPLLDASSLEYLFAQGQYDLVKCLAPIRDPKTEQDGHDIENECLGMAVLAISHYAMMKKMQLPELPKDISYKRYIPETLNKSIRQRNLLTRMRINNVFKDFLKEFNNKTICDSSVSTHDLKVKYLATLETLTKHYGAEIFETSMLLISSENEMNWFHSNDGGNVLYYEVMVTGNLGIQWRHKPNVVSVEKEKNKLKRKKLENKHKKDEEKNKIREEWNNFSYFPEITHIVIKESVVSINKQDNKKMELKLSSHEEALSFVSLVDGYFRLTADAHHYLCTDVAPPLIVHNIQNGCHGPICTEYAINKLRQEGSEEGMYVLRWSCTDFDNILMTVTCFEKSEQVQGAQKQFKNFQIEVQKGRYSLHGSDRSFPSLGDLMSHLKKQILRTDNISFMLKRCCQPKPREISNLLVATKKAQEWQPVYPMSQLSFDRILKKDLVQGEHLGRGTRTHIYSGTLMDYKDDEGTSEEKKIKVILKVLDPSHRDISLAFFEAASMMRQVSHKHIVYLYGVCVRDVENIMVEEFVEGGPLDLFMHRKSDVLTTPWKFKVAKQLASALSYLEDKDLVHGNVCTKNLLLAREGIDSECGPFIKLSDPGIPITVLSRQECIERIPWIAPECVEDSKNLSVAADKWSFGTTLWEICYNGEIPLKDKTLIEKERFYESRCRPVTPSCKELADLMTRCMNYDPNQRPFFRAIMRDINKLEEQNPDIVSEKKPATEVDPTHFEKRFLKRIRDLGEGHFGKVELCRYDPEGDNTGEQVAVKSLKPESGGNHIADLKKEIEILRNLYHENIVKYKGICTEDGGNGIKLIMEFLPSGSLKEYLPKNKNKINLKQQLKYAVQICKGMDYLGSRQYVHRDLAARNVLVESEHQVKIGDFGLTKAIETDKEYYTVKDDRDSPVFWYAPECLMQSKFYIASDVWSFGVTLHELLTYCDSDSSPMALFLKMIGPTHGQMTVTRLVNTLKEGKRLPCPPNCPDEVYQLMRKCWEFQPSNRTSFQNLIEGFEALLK", "assay": "Inhibition of JAK1 (unknown origin) using Poly-(Glu,Tyr 4:1) peptide as substrate in presence of ATP by ADP-Glo reagent based assay"}, "COLO 205": {"test_system": "COLO 205", "assay": "Cytotoxicity against human COLO 205 cells assessed as cell growth inhibition incubated for 48 hrs by MTT assay", "assay_type": "functional, cell-based", "settings": "COLO 205, 48 h"}, "HepG2": {"test_system": "HepG2", "assay": "Cytotoxicity against human HepG2 cells assessed as cell growth inhibition incubated for 48 hrs by MTT assay", "assay_type": "functional, cell-based", "settings": "HepG2, 48 h"}, "[4]": {"assay": "Cytotoxicity against human HaCaT cells assessed as cell growth inhibition incubated for 48 hrs by MTT assay", "assay_type": "toxicity, cell-based"}, "A2780": {"test_system": "A2780", "assay": "Antiproliferative activity against human A2780 cells assessed as cell growth inhibition incubated for 48 hrs by MTT assay", "assay_type": "functional, cell-based", "settings": "A2780, 48 h"}, "HCT-8": {"test_system": "HCT-8", "assay": "Antiproliferative activity against human HCT-8 cells assessed as cell growth inhibition incubated for 48 hrs by MTT assay", "assay_type": "functional, cell-based", "settings": "HCT-8, 48 h"}, "[5]": {"assay": "Antiproliferative activity against human HCT-8/VCR cells assessed as cell growth inhibition incubated for 48 hrs by MTT assay", "assay_type": "functional, cell-based"}, "[6]": {"assay": "Antiproliferative activity against human A549/DDP cells assessed as cell growth inhibition incubated for 48 hrs by MTT assay", "assay_type": "functional, cell-based"}, "[7]": {"assay": "Resistance index, ratio of IC50 for antiproliferative activity against human A2780T cells to IC50 for antiproliferative activity against human A2780 cells", "assay_type": "functional"}, "[8]": {"assay": "Resistance index, ratio of IC50 for antiproliferative activity against human A549/DDP cells to IC50 for antiproliferative activity against human A549 cells", "assay_type": "functional"}, "PC-3": {"test_system": "PC-3", "assay": "Antiproliferative activity against human PC-3 cells assessed as cell growth inhibition incubated for 48 hrs by MTT assay", "assay_type": "functional, cell-based", "settings": "PC-3, 48 h"}, "[9]": {"assay": "Antiproliferative activity against Chinese hamster CHO cells assessed as cell growth inhibition incubated for 48 hrs by MTT assay", "assay_type": "toxicity, cell-based, Cricetulus griseus"}, "[10]": {"assay": "AUC (0 to infinity) in CD-1 mouse at 1 mg/kg,iv measured upto 24 hrs by HPLC-MS/MS analysis", "assay_type": "ADME, organism-based", "design": "dose 1 mg/kg, time < 24 hrs, route iv", "settings": "in vivo"}, "[11]": {"assay": "Tmax in CD-1 mouse at 1 mg/kg,iv measured upto 24 hrs by HPLC-MS/MS analysis", "assay_type": "ADME, organism-based", "settings": "in vivo"}, "[12]": {"assay": "AUC (0 to t) in CD-1 mouse at 10 mg/kg,ip measured upto 24 hrs by HPLC-MS/MS analysis", "assay_type": "ADME, organism-based", "design": "dose 10 mg/kg, time < 24 hrs, route ip", "settings": "in vivo"}, "[13]": {"assay": "AUC (0 to t) in CD-1 mouse assessed as AUC (0 to t) of metabolite at 10 mg/kg,ip measured upto 24 hrs by HPLC-MS/MS analysis", "assay_type": "ADME, organism-based", "design": "dose 10 mg/kg, time < 24 hrs, route ip", "settings": "in vivo"}, "[14]": {"assay": "AUC (0 to infinity) in CD-1 mouse assessed as AUC (0 to infinity) of metabolite at 10 mg/kg,ip measured upto 24 hrs by HPLC-MS/MS analysis", "assay_type": "ADME, organism-based", "design": "time < 24 hrs, dose 10 mg/kg, route ip", "settings": "in vivo"}, "[15]": {"assay": "MRT (0 to t) in CD-1 mouse assessed as MRT (0 to t) of metabolite at 10 mg/kg,ip measured upto 24 hrs by HPLC-MS/MS analysis", "assay_type": "ADME, organism-based", "settings": "in vivo"}, "[16]": {"assay": "MRT (0 to infinity) in CD-1 mouse assessed as MRT (0 to infinity) of metabolite at 10 mg/kg,ip measured upto 24 hrs by HPLC-MS/MS analysis", "assay_type": "ADME, organism-based", "settings": "in vivo"}, "[17]": {"assay": "Half life in CD-1 mouse assessed as half life of metabolite at 10 mg/kg,ip measured upto 24 hrs by HPLC-MS/MS analysis", "assay_type": "ADME, organism-based", "settings": "in vivo"}, "[18]": {"assay": "Cmax in CD-1 mouse assessed as Cmax of metabolite at 10 mg/kg,ip measured upto 24 hrs by HPLC-MS/MS analysis", "assay_type": "ADME, organism-based", "design": "time < 24 hrs, dose 10 mg/kg, route ip", "settings": "in vivo"}, "[19]": {"assay": "Oral bioavailability in CD-1 mouse assessed as Oral bioavailability of metabolite at 10 mg/kg,ip measured upto 24 hrs by HPLC-MS/MS analysis", "assay_type": "ADME, organism-based", "settings": "in vivo"}, "Tubulin": {"target": "Tubulin (Sus scrofa, UniProt P02554+P02550)", "assay": "Inhibition of porcine brain tubulin polymerization measured for 30 mins in presence of GTP by microplate reader assay", "assay_type": "tissue-based"}, "Tubulin (Homo sapiens)": {"target": "Tubulin (Homo sapiens) (UniProt P68371+Q9H4B7+P0DPH7+P68366+Q13509+Q71U36+P04350+Q3ZCM7+P07437+P68363+Q9BQE3+Q6PEY2+Q13885+Q9BVA1+Q9BUF5)", "assay": "Disruption of microtubule assembly in human A549 cells at 0.1 uM incubated for 6 hrs by Hoechst33342 staining based immunofluorescence analysis", "assay_type": "cell-based"}, "[20]": {"target": "T2, JAK2-STAT3 (Homo sapiens) (UniProt O60674+P40763)", "assay": "Inhibition of JAK2/STAT3 signalling pathway in human A549 cells assessed as downregulation of JAK2 phosphorylation incubated for 24 hrs by Western blotting analysis", "assay_type": "cell-based"}, "[21]": {"target": "T2, JAK2-STAT3 (Homo sapiens)", "assay": "Inhibition of JAK2/STAT3 signalling pathway in human A549 cells assessed as downregulation of STAT3 phosphorylation incubated for 24 hrs by Western blotting analysis", "assay_type": "cell-based"}, "A549 [22]": {"test_system": "A549", "assay": "Induction of cell cycle arrest in human A549 cells assessed as accumulation of cells at G2/M phase at 5 nM incubated for 24 hrs by PI/RNase staining based flow cytometry analysis", "assay_type": "functional"}, "A549 [23]": {"test_system": "A549", "assay": "Induction of apoptosis in human A549 cells assessed as late apoptotic cells at 5 nM incubated for 24 hrs by Annexin V-FITC/PI staining based flow cytometry (reference value: 1.72 %)", "assay_type": "functional"}, "A549 [24]": {"test_system": "A549", "assay": "Induction of apoptosis in human A549 cells assessed as necrotic cells at 20 nM incubated for 24 hrs by Annexin V-FITC/PI staining based flow cytometry (reference value: 0.67 %)", "assay_type": "functional"}, "A549 [25]": {"test_system": "A549", "assay": "Induction of mitochondrial membrane potential loss in human A549 cells by measuring red fluorescence at 10 nM incubated for 16 hrs by JC-1 staining based flow cytometry analysis (reference value: 99.3 %)", "assay_type": "functional"}, "A549 [26]": {"test_system": "A549", "assay": "Antitumor activity against human A549 cells xenografted in Balb/c mouse assessed as tumor size at 50 mg/kg,ip administration measured after 31 days", "assay_type": "functional", "settings": "time 31 day"}, "[27]": {"assay": "Toxicity in Balb/c mouse xenografted with human A549 cells assessed as effect on lung morphology at 50 mg/kg,ip administration measured after 31 days by Hematoxylin-eosin staining based microscopy", "assay_type": "organism-based", "settings": "in vivo, 744 h, time 31 day"}, "[28]": {"assay": "Toxicity in Balb/c mouse xenografted with human A549 cells assessed as effect on liver morphology at 50 mg/kg,ip administration measured after 31 days by Hematoxylin-eosin staining based microscopy", "assay_type": "organism-based", "settings": "in vivo, 744 h, time 31 day"}},
  "note": "pIC50: −log10 of the molar value. Activity calls are given as the source filed them. The rule behind the calls is not given here.",
  "data": [
    {"compound": "COc1cc(-c2nccc3nc(Nc4cccc5[nH]ccc45)nn23)cc(OC)c1OC", "values": [
      {"measurement": "pIC50", "setting": "KP-4", "result": 7.89},
      {"measurement": "inhibition", "setting": "[1]", "result": 97, "unit": "%"},
      {"measurement": "pIC50", "setting": "[2]", "result": 7.13},
      {"measurement": "pIC50", "setting": "[3]", "result": "< 4.70"},
      {"measurement": "pIC50", "setting": "COLO 205", "result": 7.92},
      {"measurement": "pIC50", "setting": "HepG2", "result": 7.29},
      {"measurement": "IC50 at 48 h", "setting": "[4]", "result": 450, "unit": "nM"},
      {"measurement": "pIC50", "setting": "A2780", "result": 7.12},
      {"measurement": "pIC50", "setting": "HCT-8", "result": 7.47},
      {"measurement": "pIC50", "setting": "[5]", "result": 7.31},
      {"measurement": "pIC50", "setting": "[6]", "result": 7.44},
      {"measurement": "Ratio IC50", "setting": "[7]", "result": 0.3},
      {"measurement": "Ratio IC50", "setting": "[8]", "result": 0.5},
      {"measurement": "pIC50", "setting": "PC-3", "result": 6.65},
      {"measurement": "IC50 at 48 h", "setting": "[9]", "result": 24, "unit": "nM"},
      {"measurement": "AUC(0-inf)", "setting": "[10]", "result": 390, "unit": "ng·h/mL"},
      {"measurement": "Tmax", "setting": "[11]", "result": 6, "unit": "min"},
      {"measurement": "AUC(0-t) at 24 h", "setting": "[12]", "result": 559, "unit": "ng·h/mL"},
      {"measurement": "AUCt", "setting": "[13]", "result": 2534.7, "unit": "ng·h/mL"},
      {"measurement": "AUC", "setting": "[14]", "result": 2604.3, "unit": "ng·h/mL"},
      {"measurement": "MRT(t)", "setting": "[15]", "result": 3.5, "unit": "h"},
      {"measurement": "MRT", "setting": "[16]", "result": 4, "unit": "h"},
      {"measurement": "t1/2", "setting": "[17]", "result": 5.3, "unit": "h"},
      {"measurement": "Cmax", "setting": "[18]", "result": 700.2, "unit": "ng/mL"},
      {"measurement": "F", "setting": "[19]", "result": 69.7, "unit": "%"},
      {"measurement": "IC50", "setting": "Tubulin", "result": 1300, "unit": "nM"},
      {"measurement": "Activity", "setting": "Tubulin (Homo sapiens)", "result": "Active"},
      {"measurement": "inhibition", "setting": "[20]", "result": "Dose-Dependent Effect"},
      {"measurement": "inhibition", "setting": "[21]", "result": "Dose-Dependent Effect"},
      {"measurement": "Activity", "setting": "A549 [22]", "result": 15.6, "unit": "%"},
      {"measurement": "Activity", "setting": "A549 [23]", "result": 1.78, "unit": "%"},
      {"measurement": "Activity", "setting": "A549 [24]", "result": 5.26, "unit": "%"},
      {"measurement": "Activity", "setting": "A549 [25]", "result": 73.6, "unit": "%"},
      {"measurement": "Activity", "setting": "A549 [26]", "result": 315.8, "unit": "mm3"},
      {"measurement": "Activity", "setting": "[27]", "result": "Non-Toxic"},
      {"measurement": "Activity", "setting": "[28]", "result": "Non-Toxic"}
    ]}
  ]
}
